Assay results reported in PubChem BioAssay (NCI).
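A five-concentration, 48-hour dose response in 96-well plates underlies each endpoint, interpolated linearly between surrounding concentrations. Here, GI50 denotes the concentration required for 50% inhibition of growth. TGI: concentration producing complete growth inhibition.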

Tests used:
Assay in all cases: NCI anticancer screen, dose series, 48 h
HOP-62 NSCLC = test system: HOP-62 NSCLC
MALME-3M melanoma = test system: MALME-3M melanoma
OVCAR-4 ovarian = test system: OVCAR-4 ovarian
OVCAR-8 ovarian = test system: OVCAR-8 ovarian
SN12C renal = test system: SN12C renal
SW-620 colon = test system: SW-620 colon
CCRF-CEM leukemia = test system: CCRF-CEM leukemia
HT29 colon = test system: HT29 colon
M14 melanoma = test system: M14 melanoma
MOLT-4 leukemia = test system: MOLT-4 leukemia

| SMILES | TGI (HOP-62 NSCLC) | TGI (MALME-3M melanoma) | TGI (OVCAR-4 ovarian) | TGI (OVCAR-8 ovarian) | TGI (SN12C renal) | TGI (SW-620 colon) | TGI (CCRF-CEM leukemia) | TGI (HT29 colon) | TGI (M14 melanoma) | GI50 (CCRF-CEM leukemia) | GI50 (HOP-62 NSCLC) | GI50 (HT29 colon) | GI50 (M14 melanoma) | GI50 (MALME-3M melanoma) | GI50 (OVCAR-4 ovarian) | GI50 (OVCAR-8 ovarian) | GI50 (SN12C renal) | GI50 (SW-620 colon) | TGI (MOLT-4 leukemia) | GI50 (MOLT-4 leukemia) |
| --- | --- | --- | --- | --- | --- | --- | --- | --- | --- | --- | --- | --- | --- | --- | --- | --- | --- | --- | --- | --- |
| C=CC1=C(C)C2=NC1=CC1=NC(=CC3=C(C)C4=C(O)[C@H](C(=O)OC)C(=C5NC(=C2)[C@@H](C)[C@@H]5CCC(=O)O)C4=N3)C(CC)=C1C | > 33.5 µM | > 100 µM | 22 µM | > 100 µM | > 100 µM | 10.8 µM | – | – | – | – | – | – | – | – | – | – | – | – | – | – |
| COc1ccc2c(NCCCCCCNc3c4ccccc4nc4cc(OC)ccc34)c3ccccc3nc2c1 | 0.946 µM | 2.55 µM | 0.461 µM | 11 µM | 1.49 µM | 1.08 µM | 0.549 µM | 0.486 µM | 1.23 µM | – | – | – | – | – | – | – | – | – | – | – |
| CCNCCNc1cc(-c2ccc(C#N)cc2)c(C#N)c2nc3ccccc3n12 | 14.9 µM | 3.99 µM | 8.74 µM | 16.9 µM | 11.8 µM | 11.1 µM | 9.9 µM | 9.82 µM | 3.79 µM | 2.49 µM | 3.13 µM | 3.1 µM | 1.88 µM | 1.8 µM | 2.54 µM | 5.15 µM | 3.13 µM | 2.68 µM | – | – |
| CCOC(=O)c1c(SCCN2CCOCC2)n(-c2ccccc2)c(=S)n(-c2ccccc2)c1=O | – | > 100 µM | > 100 µM | > 100 µM | > 100 µM | 41.6 µM | 99 µM | 34.9 µM | > 100 µM | – | – | – | – | – | – | – | – | – | 92.5 µM | – |
| O=C(NCCN1CCNCC1)c1ccc(Nc2nc3ccccc3c3occc23)cc1 | 22.4 µM | – | 33.3 µM | 75.7 µM | 34.9 µM | 17.4 µM | 28.5 µM | > 100 µM | 3.98 µM | 10.3 µM | 10.3 µM | 4.5 µM | 1.94 µM | – | 14.3 µM | 23.2 µM | 18.2 µM | 3.6 µM | 36.9 µM | 20.4 µM |
| O=C(/C=C/c1cccc(O)c1)c1cccc(-n2cc(-c3ccc4ccccc4c3)[nH]c2=O)c1 | 4.29 µM | 6.37 µM | – | > 100 µM | 3.56 µM | 0.605 µM | > 100 µM | 2.87 µM | 3.07 µM | 2.03 µM | 2.26 µM | 1.53 µM | 1.49 µM | 2.08 µM | – | 2.33 µM | 1.44 µM | 0.223 µM | 5.24 µM | 1.27 µM |
| O=C(O)c1ccccc1C(=O)c1ccc2c(c1)Cc1ccccc1-2 | > 100 µM | > 100 µM | > 100 µM | > 100 µM | > 100 µM | > 100 µM | – | > 100 µM | > 100 µM | – | – | – | – | – | – | – | – | – | > 100 µM | – |
| CSc1ccc(N(C)c2nc(C)nc3c2CCC3)cc1 | 21.3 µM | – | > 100 µM | > 100 µM | > 100 µM | > 100 µM | 94.7 µM | 11.1 µM | – | < 0.01 µM | < 0.01 µM | < 0.01 µM | – | – | < 0.01 µM | < 0.01 µM | < 0.01 µM | < 0.01 µM | 25.4 µM | < 0.01 µM |
| COc1c(O)c(OC)c2oc(-c3ccc(O)cc3)c(OC)c(=O)c2c1O | 94.9 µM | > 100 µM | – | > 100 µM | > 100 µM | > 100 µM | > 100 µM | > 100 µM | > 100 µM | – | – | – | – | – | – | – | – | – | > 100 µM | – |
| Cc1cccc(N(CC(=O)O)S(=O)(=O)c2ccccc2)c1 | – | > 100 µM | > 100 µM | > 100 µM | > 100 µM | > 100 µM | > 100 µM | > 100 µM | > 100 µM | – | – | – | – | – | – | – | – | – | > 100 µM | – |
| Cc1nc(-c2cccnc2)sc1C(=O)/C=C/c1cccc([N+](=O)[O-])c1 | > 100 µM | > 100 µM | – | > 100 µM | > 100 µM | > 100 µM | > 100 µM | > 100 µM | – | – | – | – | – | – | – | – | – | – | > 100 µM | – |
| CC(C)[O-].CC(C)[O-].O=c1cccccc1[O-].O=c1cccccc1[O-].[Ti+4] | > 100 µM | 70.2 µM | > 100 µM | > 100 µM | – | > 100 µM | > 100 µM | – | > 100 µM | – | > 100 µM | – | – | – | – | – | – | – | > 100 µM | – |
| O=C1C2=C(CCC2)Nc2cccc3ncn1c23 | – | > 100 µM | – | > 100 µM | > 100 µM | > 100 µM | > 100 µM | – | – | – | – | – | – | – | – | – | – | – | > 100 µM | – |
| CC(=O)n1c(=O)c2cc3c(=O)n(-c4cccc(C#N)c4)c(=O)c3cc2c1=O | > 100 µM | > 100 µM | > 100 µM | > 100 µM | > 100 µM | > 100 µM | > 100 µM | > 100 µM | > 100 µM | – | – | – | – | – | – | – | – | – | – | – |
| O=[N+]([O-])c1ccc(-c2cc3c(Nc4ccc(Cl)c(C(F)(F)F)c4)ncnc3s2)cc1 | > 100 µM | 4.19 µM | > 100 µM | > 100 µM | > 100 µM | > 100 µM | > 100 µM | > 100 µM | > 100 µM | 1.29 µM | 3.13 µM | 1.49 µM | 2.86 µM | 1.51 µM | 1.2 µM | 2.67 µM | 1.16 µM | 2.86 µM | – | – |
| CC1=NN(C(=O)c2ccncc2)C(=O)C1N=Nc1ccc(F)cc1 (stereo not drawn) | – | > 100 µM | > 100 µM | > 100 µM | > 100 µM | > 100 µM | – | > 100 µM | > 100 µM | – | – | – | – | – | – | – | – | – | – | – |
| Cc1cccc(N=Nc2ccc(N=Nc3c(O)ccc4ccccc34)cc2C)c1 | 89.6 µM | 5.34 µM | > 100 µM | 60.3 µM | – | > 100 µM | > 100 µM | > 100 µM | > 100 µM | – | – | – | – | – | – | – | – | – | > 100 µM | – |
| N.N.N.N.N.O=S(=O)([O-])S(=O)(=O)[O-].[Co+3] | – | > 100 µM | > 100 µM | > 100 µM | > 100 µM | > 100 µM | > 100 µM | > 100 µM | > 100 µM | > 100 µM | – | > 100 µM | > 100 µM | > 100 µM | > 100 µM | > 100 µM | > 100 µM | > 100 µM | > 100 µM | > 100 µM |
| [2H]c1nc(=Nc2cc(NC(=O)C=C)c(N(C)CCN(C)C)cc2OC)[nH]c(-c2cn(C([2H])([2H])[2H])c3ccccc23)c1[2H] | 20.7 µM | 3.66 µM | 17.3 µM | 24.5 µM | 2.71 µM | 3.87 µM | – | 3.26 µM | 3.23 µM | – | 4.25 µM | 1.69 µM | 1.67 µM | 1.94 µM | 3.27 µM | 4 µM | 1.18 µM | 1.86 µM | 2.86 µM | 1.14 µM |
| CC(C)(C)NCC(COc1ccc([N+](=O)[O-])cc1)OP(c1ccccc1)c1ccccc1 (stereo not drawn) | > 100 µM | 67 µM | – | > 100 µM | > 100 µM | > 100 µM | 79.2 µM | > 100 µM | > 100 µM | – | – | – | – | – | – | – | – | – | 49.6 µM | – |
| c1ccc(-c2nc(N3CCCNCC3)c3nc(-c4ccccc4)oc3n2)cc1 | 3.23 µM | 3.33 µM | 3.67 µM | 4.93 µM | 3.38 µM | 3.47 µM | – | 3.72 µM | 3.4 µM | – | 1.58 µM | 1.76 µM | 1.79 µM | 1.77 µM | 1.98 µM | 2.13 µM | 1.74 µM | 1.76 µM | – | – |
| O=C1/C(=C/c2ccc([N+](=O)[O-])cc2)COc2ccc(O)cc21 | > 100 µM | 75.2 µM | > 100 µM | > 100 µM | 6.85 µM | 3.3 µM | 3.29 µM | – | > 100 µM | 0.647 µM | 49.8 µM | – | 7.78 µM | 13.9 µM | 11.3 µM | 5.88 µM | 2.22 µM | 1.5 µM | 37.6 µM | 3.11 µM |
| O=C1c2cccc3cccc(c23)C(=O)N1O | – | > 100 µM | > 100 µM | > 100 µM | > 100 µM | > 100 µM | > 100 µM | > 100 µM | > 100 µM | – | – | – | – | – | – | – | – | – | > 100 µM | – |
| Cc1ccc(NC(=O)/C(Cc2nc3ccc([N+](=O)[O-])cc3[nH]c2=O)=N\NC(=O)C[n+]2ccccc2)c(C)c1 | > 100 µM | – | 46.6 µM | 74 µM | 98.1 µM | > 100 µM | 61.1 µM | > 100 µM | > 100 µM | – | – | – | – | – | – | – | – | – | 88 µM | – |
| O=C1c2ccccc2-c2c1c1ccccc1c(=O)n2CCNCCn1c2c(c3ccccc3c1=O)C(=O)c1ccccc1-2 | > 25 µM | > 25 µM | – | > 25 µM | > 25 µM | > 25 µM | – | – | > 25 µM | – | > 25 µM | – | > 25 µM | > 25 µM | – | > 25 µM | > 25 µM | > 25 µM | 12.8 µM | 4.84 µM |
| CC1(O)CCn2c(=O)c3cc4ccccc4cc3c(=O)n2C1O (stereo not drawn) | > 100 µM | > 100 µM | – | > 100 µM | > 100 µM | > 100 µM | > 100 µM | > 100 µM | – | – | – | – | – | – | – | – | – | – | > 100 µM | – |
| Cc1cc(C)n(C2=NS(=O)(=O)c3ccccc3N2C)n1 | > 100 µM | – | > 100 µM | > 100 µM | > 100 µM | > 100 µM | > 100 µM | > 100 µM | > 100 µM | – | – | – | – | – | – | – | – | – | > 100 µM | – |
| O=C(CC1(O)C(=O)Nc2c(Cl)ccc(Cl)c21)c1ccc(Cl)cc1Cl (stereo not drawn) | 59.5 µM | 34.9 µM | 23.3 µM | 41.6 µM | 30.5 µM | 56.6 µM | – | 33.3 µM | 25.9 µM | – | – | – | – | – | – | – | – | – | – | – |
